Bridge positions count the residues as written; N and C are the ends. Ends that are not written are not given here. I, II: the chains in the order shown.
Key:
[1] = test system: HeLa cells; test: GFP-NLS protein transduction assay (flow cytometry: Pos cells %, viability %, relative fluorescence intensity; microscopy)
[2] = in vitro; conditions: human, HeLa cells
[3] = in vitro; conditions: human, HeLa cells; remark: listed apart in the source
[4] = Table 10.3a, Protocol B, HeLa, shuttle 50 μM, GFP-NLS 5 μM, 10 seconds
[5] = Table 10.3e, Protocol B, HeLa, shuttle 20 μM, GFP-NLS 5 μM, 1 minute
[6] = Cell viability (%) (±St Dev.; n = 3)
[7] = Cell viability (%) (±St. Dev.; n = 3)

Substance: HHHHHHKWKLFKKIGAVLKVLTTGRRRRRRRRR [His-CM18-9Arg]
- Cell viability (%) (±St. Dev.; n = 3) ([1]; Table 10.1, Protocol B, HeLa, shuttle 50 μM, GFP-NLS 5 μM, 10 seconds): 45.8 ± 5.4%
- Cell viability (%) (±St. Dev.; n = 3) [1, 4]: 45.8 ± 3.53%
- viability [2]: 31.63 ± 0.11%

Substance: HHHHHHKWKLFKKIGAVLKVLTTGYARAAARQARACCCCCC (cysteines drawn unpaired) [His-CM18-PTD4-6Cys]
- Mean % cells with GFP signal (±St Dev.; n = 3) [1, 5]: 41.3 ± 4.28%

Substance: HHHHHHKWKLFKKIGAVLKVLTTGYGRKKRRQRRRC [His-CM18-TAT-Cys]
- viability at 10 s, 50 µM [3]: 41.4 ± 3.91%
- Mean % cells with GFP signal (±St. Dev.; n = 3) [1, 4]: 49.3 ± 4.1%

Substance: HHHHHHKWKLLRRAAKKAARRYLKLLLKQLKLHHHHHH [FSD1]
- viability [3, 6]: 60.3 ± 6.18%

Substance: HHHHHHLAKLFKWLRALIRQGAKRKTKRASAHHHHHH [FSD17]
- viability [3, 6]: 99.1 ± 2.09%

Substance: HHHHHHLALARWARYFRILAKLKRTKRGQAKAHHHHHH [FSD14]
- viability [3, 6]: 92.8 ± 7.42%

Substance: HHHHHHLLKLWRRLLKLFRKALRALAKRAKSALKRAQAA [FSN5]
- viability [3, 7]: 85.4 ± 6.16%

Substance: HHHHHHLLKLWSRLLKLWTQALRALAKRAKALAHHHHHH [FSN6]
- viability [3, 7]: 32.6 ± 4.26%
- Mean % cells with GFP signal (±St Dev.; n = 3) ([1]; Table B3, HeLa cells, GFP-NLS cargo): 15.74 ± 1.63%

Substance: HHHHHHWYLALLALYWQRAKAKTRQRRRHHHHHH [FSD6]
- viability [3, 6]: 88.1 ± 7.66%

Substance: I: KWKLFKKIGAVLKVLTTGRQIKIWFQNRRMKWKKC / II: KWKLFKKIGAVLKVLTTGRQIKIWFQNRRMKWKKC (disulfide I:35-II:35) [dCM18-Pen-Cys]
- viability [2]: 3.36 ± 0.26%

Substance: KWKLFKKIGAVLKVLTTGHHHHHHYARAAARQARA [CM18-His-PTD4]
- Cell viability (%) (±St. Dev.; n = 3) [1, 5]: 57.7 ± 4.2%

Substance: KWKLFKKIGAVLKVLTTGYARAAARQARAHHHHHH [CM18-PTD4-His]
- viability [2]: 29.5 ± 0.21%

Substance: LHHHSHHLIHIWLLFKLKLKKKKAARRARRARRHH [FSD29]
- viability at 1 min, 10 µM [3, 7]: 89.8 ± 8.48%

Substance: LIKLWSRFIKFWTQGRRIKAKLARAGQSWFG [FSN7]
- viability [3, 7]: 93.5 ± 3.61%

Substance: MHHHHHHKWKLFKKIGAVLKVLTTGYARAAARQARAC [Met-His-CM18-PTD4-Cys]
- Mean % cells with GFP signal (±St Dev.; n = 3) [1, 5]: 45.6 ± 3.88%

Substance: MHHHHHHKWKLFKKIGAVLKVLTTGYGRKKRRQRRRC [M-His-CM18-TAT-Cys]
- viability [2]: 33.1 ± 0.4%

Substance: RLHHSHHLIHIWLLFKLKLKKKKRAARRARRHHHL [FSD37]
- viability at 1 min, 10 µM [3, 7]: 73.9 ± 2.62%

Substance: WEAKLAKALAKALAKHLAKALAKALKACEA [KALA, reference compound]
- viability [2]: 90.6 ± 4.16%
